Measured values taken from patent US12257246B2, “Composition of 2,4,6-trifluoro-n-[6-(1-methyl-piperidin-4-carbonyl)-pyridin-2-yl[-benzamide” (CoLucid Pharmaceuticals, Inc., priority 2009, dated 2025).
“Also recorded” adds a separate entry of the source.

How the values were obtained:
[1] = Oral pharmacokinetics (solution and tablet), Study 1 and Study 2; assay type: in vivo, human
Procedure: Plasma samples were analyzed for Compound I using a validated liquid chromatography with tandem mass spectrometric detection (LC/MS/MS) method. Relative bioavailability of tablet and solution formulations for AUCt, AUC∞, and Cmax were assessed. A linear mixed effects model was fitted to the log-transformed PK parameters (AUCt, AUC∞, and Cmax). Included in the model were treatment, period, and sequence as fixed factors and subjects nested within sequences as a random factor. For the relative bioavailability analysis, the tablet formulation was the test and the solution formulation was the reference. 90% confidence intervals and ratios for the relative mean in-transformed AUCt, AUC∞, and Cmax of the test to reference formulation were calculated.

[2] = system: healthy male and female subjects; experiment: Oral safety and tolerability, Study 1 and Study 2; assay type: in vivo, human; parameters: Subjects with Nausea: dose or concentration left out as unconfirmed
rabbit saphenous vein [3] = conditions: concentrations up to 0.1 mM; cited from earlier work
rabbit saphenous vein [4] = experiment: Rabbit saphenous vein contraction
[5] = biological target: T1, Human 5-HT1F receptor transfected NIH3T3 cells (Homo sapiens, UniProt P30939); experiment: Inhibition of forskolin stimulated cAMP formation; assay type: cell-based
T1 construct: expressed in transfected cells; host or cells: NIH3T3 cells
T1 sequence (P30939 1-366): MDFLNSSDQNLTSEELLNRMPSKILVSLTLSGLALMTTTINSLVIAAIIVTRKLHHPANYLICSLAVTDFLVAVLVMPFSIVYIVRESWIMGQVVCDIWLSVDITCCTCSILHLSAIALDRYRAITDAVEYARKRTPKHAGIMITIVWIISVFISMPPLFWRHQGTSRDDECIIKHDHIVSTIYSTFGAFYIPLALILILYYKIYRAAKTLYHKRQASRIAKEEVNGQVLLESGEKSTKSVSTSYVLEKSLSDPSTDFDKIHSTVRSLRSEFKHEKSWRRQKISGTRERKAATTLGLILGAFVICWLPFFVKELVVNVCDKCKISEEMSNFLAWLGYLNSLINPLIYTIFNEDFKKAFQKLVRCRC
Procedure: As was reported by R. L. Weinshank, et al., WO93/14201, the 5-HT1F receptor is functionally coupled to a G-protein as measured by the ability of serotonin and serotonergic drugs to inhibit forskolin stimulated cAMP production in NIH3T3 cells transfected with the 5-HT1F receptor. Adenylate cyclase activity was determined using standard techniques. A maximal effect is achieved by serotonin. An Emax is determined by dividing the inhibition of a test compound by the maximal effect and determining a percent inhibition. N. Adham, et al., supra; R. L. Weinshank, et al., Proceedings of the National Academy of Sciences (USA), 89:3630-3634, 1992; and the references cited therein.
Human 5-HT1F receptor transfected NIH3T3 cells (estimated Bmax from one point competition studies=488 fmol/mg of protein) were incubated in DMEM, 5 mM theophylline, 10 mM HEPES (4-[2-hydroxyethyl]-1-piperazineethanesulfonic acid) and 10 μM pargyline for 20 minutes at 37° C., 5% CO2. Drug dose-effect curves were then conducted by adding 6 different final concentrations of drug, followed immediately by the addition of forskolin (10 μM). Subsequently, the cells were incubated for an additional 10 minutes at 37° C., 5% CO2. The medium was aspirated and the reaction was stopped by the addition of 100 mM HCl. […] Radioactivity was quantified using a Packard COBRA Auto Gamma counter, equipped with data reduction software.

[6] = Study 2 Part 1, 200 mg tablet (N = 28)
[7] = Study 2 Part 1, 200 mg tablet (N = 29)
[8] = Study 2 Part 2, 50 mg tablet (N = 28)
[9] = Study 2 Part 2, 400 mg tablet (N = 28)

Q: For CN1CCC(C(=O)c2cccc(NC(=O)c3c(F)cc(F)cc3F)n2)CC1 [Compound I, 2,4,6-trifluoro-N-[6-(1-methyl-piperidin-4-ylcarbonyl)-pyridin-2-yl]-benzamide], which solubility (Solubility (statement)) is on record?
A: high solubility

Q: And the Tmax ([1]; both sexes, human, plasma, 50 to 400 mg tablet formulation, oral, read-out: Median tmax)?
A: 1.5 to 2.5 h

Q: And the oral bioavailability ([1]; human, in vivo, po)?
A: orally bioavailable

Q: And the bioavailability ([1]; male, human, plasma, 200 mg oral dose, read-out: relative bioavailability of the tablet to the solution)?
A: 100%

Q: What about the “dose linearity / proportionality of oral pharmacokinetics” value ([1]; oral 25 to 400 mg, males and females) of the same compound?
A: dose linearity; also recorded: dose proportionality

Q: What about the “oral dose achieving plasma levels previously associated with efficacy by the i.v. route” value ([1]; solution and tablet) of the same compound?
A: ≥ 50 mg

Q: And the “Subjects with Blurred vision” value [2, 6]?
A: 0 n

Q: And the “Subjects with Feeling hot” value [2, 6]?
A: 0 n

Q: And the “Subjects with Palpitations” value [2, 6]?
A: 0 n

Q: What about the “Subjects with Blurred vision” value [2, 7] of the same compound?
A: 0 n

Q: And the “Subjects with Diarrhea” value [2, 7]?
A: 0 n

Q: And the “Subjects with Feeling hot” value [2, 7]?
A: 0 n

Q: What about the “Subjects with Headache” value [2, 7] of the same compound?
A: 0 n

Q: What about the “Subjects with Palpitations” value [2, 7] of the same compound?
A: 0 n

Q: What about the “Subjects with Blurred vision” value [2, 8] of the same compound?
A: 0 n

Q: And the “Subjects with Diarrhea” value [2, 8]?
A: 0 n

Q: And the “Subjects with Feeling hot” value [2, 8]?
A: 0 n

Q: What about the “Subjects with Headache” value [2, 8] of the same compound?
A: 0 n

Q: What about the “Subjects with Diarrhea” value [2, 9] of the same compound?
A: 0 n

Q: What about the “Subjects with Palpitations” value [2, 9] of the same compound?
A: 0 n

Q: And the “Subjects with Nausea” value ([2]; Study 2 Part 2, tablet (N = 28))?
A: 0 n

Q: What about the “fatigue, females” value ([2]; after the 400 mg oral dose) of the same compound?
A: 50%

Q: And the “fatigue, males” value ([2]; after the 400 mg oral dose)?
A: 21%

Q: What about the tolerability ([2]; all oral doses of solution and tablet) of the same compound?
A: well tolerated

Q: What about the tolerability ([2]; doses above 400 mg administered orally) of the same compound?
A: not well tolerated

Q: What about the “constriction of rabbit saphenous vein” value (rabbit saphenous vein [3]) of the same compound?
A: did not constrict

Q: And the vasoconstrictive activity (rabbit saphenous vein [4])?
A: not be significantly vasoconstrictive

Q: And the “functional activity in cAMP assay” value [5]?
A: agonist of the 5-HT1F receptor
